Here are results for five compounds from US6140362A, “Method for inhibiting the growth of mammalian cells” (Rohm and Haas Company, priority 1997, dated 2000).

One assay concerns Melanoma (SKMEL-2). Put plainly: Growth inhibition of human tumor cell lines: Melanoma (SKMEL-2). As to conditions: SK-MEL-2, cell line F = Melanoma (SKMEL-2), NCI testing. It is filed as cell-based. The method, then:
(§1) Selected compounds were evaluated by the National Cancer Institute, Bethesda, Md. against 60 human tumor cell lines according to procedures described in Principles and Practices of Oncology, volume 3, issue number 10, pp. 1-12. Results of the testing against representative cell lines including the test compound number, and the GI50 values (μM) are set forth in Table 3. The GI50 value is the concentration required to inhibit cell growth by 50% as compared to untreated control cultures.

The test system of assay [1] is mouse lymphoma cell line L5178Y. Put plainly: Growth inhibition of mouse lymphoma cells (L5178Y), 48 h. In kind it is cell-based. The settings on record: 48 hours; for inhibition at 2 µM: 2 micromolar; for inhibition at 10 µM: 10 micromolar, read-out: Inhibition of growth. The method, then: Effects of compounds on growth of mouse lymphoma cell line L5178Y, were determined as follows. Cells were grown in Fischer's medium (obtained from Life Technologies, Inc., Gaithersburg, Md.) containing 0.24 grams per liter (g/l) sodium pyruvate, 1.12 g/l surfactant (Pluronic F-68, from BASF Corporation, Parsippany, N.J.), and 10% by volume (10% v/v) heat-inactivated horse serum (obtained from Life Technologies, Inc) at 37° C. To 30 ml aliquots of cell suspension (2×10^4 cells per milliliter (mL)) in exponential growth phase were added test compounds dissolved in dimethylsulfoxide (DMSO) at various concentrations such that the final DMSO concentration in the mixtures was 0.25%. Tubes were gassed with 5% CO2 then incubated on a roller drum apparatus. After 48 hours the cells were treated with 0.1% trypsin (Life Technologies, Inc.,) for 10 minutes and counted in a Coulter Counter equipped with a 140 micrometer (μM) aperture. Percent inhibition of growth was calculated by comparing the number of cells in assays containing test compound with the number of cells in controls lacking the test compound.

Assay [2] concerns Nonsmall cell lung cancer (NCIH522). The assay can be described thus: Growth inhibition of human tumor cell lines: Nonsmall cell lung cancer (NCIH522). The settings on record: NCI-H522, cell line B = Nonsmall cell lung cancer (NCIH522), NCI testing. It is filed as cell-based. The method, then:
as §1

Another assay has as its system tubulin. The assay can be described thus: Inhibition of microtubule assembly. The settings on record: preincubated 1 h at 37° C. In kind it is biochemical, calf. The method, then:
Compounds were evaluated for their ability to inhibit tubulin assembly into microtubules by comparing the extent of cold-reversible assembly in the presence of each test compound with controls lacking the test compound. Tubulin was isolated from calf brain tissue by two cycles of assembly/disassembly as described by Vallee, R. B. in Methods in Enzymology, vol. 134, pp. 89-104. Assay mixtures contained 1 mg/ml of purified tubulin in 1 M sodium glutamate, pH 6.6, 1 millimolar (mM) MgCl2, and the test compound, which was added as a solution in DMSO. The final concentration of DMSO in each assay was 2% (v/v). Assay mixtures were preincubated at 37° C. for 1 h, then chilled on ice for 5 min. Microtubule assembly was initiated by addition of guanosine triphosphate (0.1 mM), and incubation at 37° C. Assembly was followed turbidimetrically at 350 nm for 20 minutes (min) using a temperature-controlled cell in a Cary 2200 spectrophotometer. Since microtubules undergo depolymerization at 0° C., assembly was confirmed by measuring the reduction in turbidity following incubation for 30 min at 0° C. The difference in absorbance before and after incubation for 30 min at 0° C. (ΔA350) represents the extent of microtubule assembly. Inhibition of assembly was calculated by subtracting the (ΔA350) values for treatments with test compounds from the (ΔA350) for controls without test compound, and expressing this difference as a percentage of the (ΔA350) value for the control. Results including test compound number, test compound concentration in micromoles per liter (μM) and percent inhibition are set forth in Table 11.

For a further assay, the system named is Leukemia (SR). The assay can be described thus: Growth inhibition of human tumor cell lines: Leukemia (SR). In kind it is cell-based. The settings on record: cell line A = Leukemia (SR), NCI testing. The method, then: as §1
For another assay, the system named is Colon cancer (HCT116). The assay can be described thus: Growth inhibition of human tumor cell lines: Colon cancer (HCT116). As to conditions: HCT-116, cell line D = Colon cancer (HCT116), NCI testing. It is filed as cell-based. The method, then:
as §1

Another assay relates to Ovarian cancer (OVCAR8). Put plainly: Growth inhibition of human tumor cell lines: Ovarian cancer (OVCAR8). It is filed as cell-based. The settings on record: OVCAR-8, cell line G = Ovarian cancer (OVCAR8), NCI testing. The method, then:
as §1

Another assay concerns Renal cancer (CAKI1). Put plainly: Growth inhibition of human tumor cell lines: Renal cancer (CAKI1). As to conditions: CAKI-1, cell line H = Renal cancer (CAKI1), NCI testing. In kind it is cell-based. The method, then: as §1
Another assay concerns CNS cancer (SF539). The assay can be described thus: Growth inhibition of human tumor cell lines: CNS cancer (SF539). In kind it is cell-based. The settings on record: SF-539, cell line E = CNS cancer (SF539), NCI testing. The method, then: as §1
For assay [3], the system named is Small cell lung cancer (DMS 114). The assay can be described thus: Growth inhibition of human tumor cell lines: Small cell lung cancer (DMS 114). In kind it is cell-based. The settings on record: cell line C = Small cell lung cancer (DMS 114), NCI testing. The method, then: as §1

Each structure is given as a SMILES string.

As for `CCC(C)(NC(=O)c1cccc(Br)c1)C(=O)C(Br)Br` (centres unmarked) [Compound 7], the GI50 in the assay with Melanoma (SKMEL-2) was determined as 2740 nM; in assay [2] it was 1080 nM; in the assay on Leukemia (SR), 2320 nM; in the assay with Colon cancer (HCT116), 3390 nM; in the assay on Ovarian cancer (OVCAR8), 3010 nM; in the assay with Renal cancer (CAKI1), 2820 nM. The GI50 in the assay on CNS cancer (SF539) worked out at 2290 nM; in assay [3] it was 1830 nM. This compound registered an inhibition at 2 µM in assay [1] of 92%. Further, in the assay on tubulin (5 μM), the “Percent inhibition of microtubule assembly” value (from here on “Percent inhibition”) is listed as 97.0%.

Regarding `CCC(C)(NC(=O)c1cc(Cl)cc(C=NOC)c1)C(=O)CCl` (centres unmarked) [Compound 4], the GI50 worked out at 3240 nM with Melanoma (SKMEL-2); 2140 nM in [2]; 590 nM with Leukemia (SR); 2580 nM with Colon cancer (HCT116); 2620 nM with Ovarian cancer (OVCAR8); 3070 nM in the assay on Renal cancer (CAKI1). For the same compound, the GI50 in the assay on CNS cancer (SF539) was 2310 nM; in assay [3] it was 1540 nM. Moreover, in assay [1], the inhibition at 2 µM worked out at 95%. Moreover, in the assay with tubulin (50 μM), the “Percent inhibition” value worked out at 89.8%.

Regarding `CCC(C)(NC(=O)c1cc(Cl)cc(Cl)c1)C(=O)CSC#N` (centres unmarked) [Compound 26], the GI50 came out at 12200 nM in the assay with Melanoma (SKMEL-2); 3770 nM in assay [2]; 5690 nM in the assay on Leukemia (SR); 4850 nM in the assay on Colon cancer (HCT116); 11900 nM in the assay on Ovarian cancer (OVCAR8); 13300 nM with Renal cancer (CAKI1). Moreover, the GI50 in the assay with CNS cancer (SF539) is 3450 nM; in assay [3], 3710 nM. Further, the inhibition at 10 µM in [1] is 67%. Moreover, in the assay on tubulin (50 μM), the “Percent inhibition” value was 56.6%.

For `CC(C)(NC(=O)c1cc(Cl)cc(Cl)c1)C(=O)CCl` [Compound 28], the GI50 in the assay with Melanoma (SKMEL-2) was 12200 nM; in assay [2], 2610 nM; with Leukemia (SR) it was 3010 nM; in the assay on Colon cancer (HCT116), 14200 nM; with Ovarian cancer (OVCAR8), 12400 nM; with Renal cancer (CAKI1), 12900 nM. Moreover, the GI50 in the assay on CNS cancer (SF539) was 9790 nM; in assay [3] it was 5380 nM. In addition, the inhibition at 10 µM in assay [1] was 87%. The “Percent inhibition” value with tubulin (50 μM) came to 22.3%.

Take `CCC(C)(NC(=O)c1cc(Cl)cc(Cl)c1)C(=O)C(Br)Br` (centres unmarked) [Compound 13]: the GI50 is 2080 nM with Melanoma (SKMEL-2); 280 nM in [2]; 280 nM with Leukemia (SR); 1390 nM in the assay on Colon cancer (HCT116); 1820 nM with Ovarian cancer (OVCAR8); 1920 nM in the assay with Renal cancer (CAKI1). For the same compound, the 50% growth inhibitory concentration (GI50) was determined as 1900 nM in the assay on CNS cancer (SF539) and 240 nM in assay [3]. Moreover, in [1], testing at 2 µM gave an inhibition of 98%. In addition, the “Percent inhibition” value in the assay on tubulin (5 μM) is 90.9%.

For orientation: GI50 means the concentration at which growth is held to half of that of the control. Low readings indicate greater sensitivity of the cells, high ones lower sensitivity of the cells. Usually inhibition stands for the relative decrease from the control value, in per cent.
